The assay has as its system NCI H-226 cells. Put plainly: Cytotoxicity MTT assay against NCI H-226 cells. Type of assay: cell-based. Conditions: NCI H-226 cells (4 × 10^4), 72 hrs treatment, mean ± S.D. of three experiments. The procedure: The target compound 5, 6 and related succinate (A), glutamate (B) derivatives were evaluated in a MTT assay against NCI H226 cells, and the results are shown in Table 1.
The NCI H-226 cells were maintained in RPMI-1640 medium supplemented with 10% fetal bovine serum (GIBCO/BRL), penicillin (100 unit/mL)/streptomycin (100 μg/mL) (GIBCO/BRL) and 1% L-glutamine (GIBCO/BRL) at 37° C. in a humidified atmosphere containing 5% CO2. Logarithmically growing tumor cells were used for all experiments.
The cytotoxicity was assessed using MTT assay.^1 NCI H-226 cells (4×10^4) were treated separately with compounds A, B, 5, and 6 for 72 h. After treatment, the cells were collected, washed with cold PBS, and then added 10 μL of MTT solution (5 mg/mL)(Sigma) with 50 μL of cells suspension in HBSS into 96-well plate and incubated them at 37° C. in the dark for 2 h. Treatment of living cells with MTT produces a dark blue formazan product, whereas no such staining is observed in dead cells. The formazan product was dissolved by adding 140 μL DMSO and then the absorbance was measured on an ELISA reader at a best wavelength of 570 nm.
Values are expression as the mean ±S.D. of three independent experiments. Student's t tests were used to assess the statistical significance of the differences, with “p” values of less than 0.05 being considered statistically significant.
For orientation: Tetrazolium dyes change colour on reduction, which living cells bring about.

Results on one molecule are retold here after US7767707B2, “Fused pyrazolyl compounds having an aminoalkylcarbonyl group” (Yung Shin Pharm. Ind. Co., Ltd., priority 2007, dated 2010).

As for `NCC(=O)OCc1ccc(-c2nn(Cc3ccccc3)c3ccccc23)o1` [Compound 5], the MTT % amounted to 85.8 ± 1.7% (Conc. 0.10 μM), 18.5 ± 3.9% (Conc. 1.0 μM) and 0% (Conc. 10.0 μM).
